From patent publication US10385372B2, “Methods for thaxtomin production and modified streptomyces with increased thaxtomin production” (priority 2014, dated 2019)

Legend:
[1] = tested on: S. scabies CebR regulator (CebR-His6); experiment: Electromobility gel shift assay (EMSA) with CebR-His6 pre-incubated with cellobiose and cellooligosaccharides; format: binding, Streptomyces scabies; conditions: EMSA of FIG. 4; for impairment of the CebR DNA-binding ability (quantification of shifted bands): CebR-His6 pre-incubated with oligosaccharide, Cy5-labelled cbs probes 6 nM
Experimental: Numbers 1 and 2 refer to EMSAs with free probes (6 nM) and with probes incubated with CebR-His6, respectively. Numbers 3 to 7 refer to EMSAs with CebR-His6 pre-incubated with oligosaccharides, i.e. cellobiose (3), cellotriose (4), cellotetraose (5), cellopentaose (6), and cellohexaose (7). Note that cellobiose (3) is the best oligosaccharide for preventing CebR interaction with all CebR-binding sites.
Electromobility gel shift assays (EMSAs) were performed in order to assess binding of the S. scabies CebR regulator (CebR^sca) to the in silico predicted cbs. The scab57761 gene was cloned into pET-22b and overexpressed in Escherichia coli Rosetta (DE3) cells. The resulting recombinant His-tagged CebR (CebR-His6) was purified from the IPTG-induced E. coli cytoplasmic extracts by Nickel-NTA affinity column. […] Under the same conditions, strong CebR-binding to cbs^cebE-R and cbs^bglC, which were used as positive controls of genes known to be directly controlled by CebR (Schlösser 2000; Marushima 2009), was observed (FIG. 3).
Experimental in vitro validations of predicted cis-acting elements allowed proposing a signaling pathway from cellobiose sensing and transport to thaxtomin biosynthesis (FIG. 5). […] Once inside the cell, cellobiose (and to a lesser extent cellotriose) prevents CebR-binding to cbs^txtR-A and cbs^txtB allowing expression of txtA, txtB and txtR. Consequently, TxtR complexed to cellobiose would be able to increase the expression levels of txtA and txtB, the thaxtomin biosynthetic genes.
EMSAs with 34-bp double-stranded probes (generated by PCR, Table 2) were performed using Cy5-labeled cbs probes (6 nM and 30 nM final concentration) and His6-tagged CebR at a final concentration between 0.08 and 3.2 μM in a total reaction volume of 50 μl. All reactions were carried out in EMSA buffer (10 mM Tris-HCl, pH 7.5, 1 mM dithiothreitol [DTT], 0.25 mM CaCl2, 0.5 mM MgCl2, 50 mM KCl, and 2% glycerol) containing excess of nonspecific DNA (salmon sperm DNA). After 15 min of incubation at room temperature, reaction mixtures were loaded onto a 1% (wt/vol) agarose gel. Bound and unbound probes were separated by gel electrophoresis for 30 min at 100 V at room temperature, and fluorescent DNA was visualized using a Typhoon Trio+ variable-mode imager (FRFC 2.4506.08).

[2] = tested on: S. scabies 87-22 and ΔcebR; experiment: Thaxtomin production on ISP-4 plates with and without cellobiose supply (HPLC); format: cell-based, Streptomyces scabies; conditions: ISP-4 medium; wild-type or ΔcebR background; FIGS. 8A and 8B
Excerpt: FIGS. 8A-B illustrate genetic complementation of the cebR mutant scored by thaxtomin production on ISP-4 plates. […] Although pigmentation is not visible in the black and white photos, FIG. 8B is a graphic illustration HPLC analysis of thaxtomin production on the ISP-4 plates from FIG. 8A. […] Thaxtomin production is reverted back to wild-type levels when the mutation is genetically complemented (cebR mutant transformed with pRLIF8 containing the cebR gene and its promoter region).
The production of thaxtomin by both strains grown on ISP-4 with and without cellobiose supply was compared. […] The further increase in toxin production by the mutant upon addition of cellobiose is most likely due to the function of cellobiose as ligand of the transcriptional activator TxtR, which drives the expression of the thaxtomin biosynthetic genes txtA and txtB (Joshi et al. 2007) (FIG. 5).
Mycelial suspensions of S. scabies strains were prepared from 48-72 h-old TSB-grown cultures by pelleting the mycelia, washing twice with sterile water, and resuspending in 1 ml sterile water to obtain an optical density at 600 nm (OD600 mn) of 1.0. […] Thaxtomin A was purified from the supernatant and analyzed by HPLC as described previously (Johnson et al. 2007). […]

`O=C[C@H](O)[C@@H](O)[C@H](O[C@@H]1O[C@H](CO)[C@@H](O)[C@H](O)[C@H]1O)[C@H](O)CO` [cellobiose] was tested, and the “impairment of the CebR DNA-binding ability (quantification of shifted bands)” value (“impairment … (quantification of shifted bands)” for short) [1] was 56%, the “allosteric effector inhibiting CebR from binding to its DNA targets” value ([1]; compared with cellotriose to cellohexaose) was “best allosteric effector” and the “effect of addition on thaxtomin production” value [2] was “significant increase”.

With `OC[C@H]1O[C@@H](O[C@H]2[C@H](O)[C@@H](O)[C@H](O[C@H]3[C@H](O)[C@@H](O)[C@H](O[C@H]4[C@H](O)[C@@H](O)[C@H](O[C@H]5[C@H](O)[C@@H](O)[C@H](O[C@H]6[C@H](O)[C@@H](O)C(O)O[C@@H]6CO)O[C@@H]5CO)O[C@@H]4CO)O[C@@H]3CO)O[C@@H]2CO)[C@H](O)[C@@H](O)[C@@H]1O` (some centres unmarked) [cellohexaose] the “impairment … (quantification of shifted bands)” value [1] was 12%.

`OC[C@H]1O[C@@H](O[C@H]2[C@H](O)[C@@H](O)[C@H](O[C@H]3[C@H](O)[C@@H](O)C(O)O[C@@H]3CO)O[C@@H]2CO)[C@H](O)[C@@H](O)[C@@H]1O` (some centres unmarked) [cellotriose] was tested, and the “impairment … (quantification of shifted bands)” value [1] was 20%.
